Laboratory results from patent US4007167A, “Antibiotic BM123 and production thereof” (American Cyanamid Company, priority 1975, dated 1977).
Converted amounts (≈) assume the structure as drawn.

Columns and labels:
Type in all cases: cell-based
[1] = system: Klebsiella pneumoniae AD; experiment: in vitro MIC, standard agar dilution procedure
[2] = system: Salmonella gallinarum 605; experiment: in vitro MIC, standard agar dilution procedure
[3] = system: Proteus morganii ATCC 8019; experiment: in vitro MIC, standard agar dilution procedure
[4] = system: Bacillus subtilis No. 17 Stansly R-78; experiment: in vitro MIC, standard agar dilution procedure
[5] = system: Pseudomonas aeruginosa ATCC 10145; experiment: in vitro MIC, standard agar dilution procedure
[6] = system: Staphylococcus aureus Rose ATCC 14154; experiment: in vitro MIC, standard agar dilution procedure
[7] = system: Shigella shiga; experiment: microbe, parasite or virus in culture
[8] = system: Streptococcus faecalis GK; experiment: in vitro MIC, standard agar dilution procedure
[9] = system: Enterobacter aerogenes 75; experiment: in vitro MIC, standard agar dilution procedure
[10] = system: Corynebacterium xerosis NRRL B-1397; experiment: in vitro MIC, standard agar dilution procedure
[11] = system: Bacillus cereus ATCC 9634; experiment: in vitro MIC, standard agar dilution procedure
[12] = system: Staphylococcus aureus 4050B122-3; experiment: in vitro MIC, standard agar dilution procedure
[13] = system: Salmonella typhosa ATCC 6539; experiment: in vitro MIC, standard agar dilution procedure
[14] = system: Escherichia coli U-311; experiment: in vitro MIC, standard agar dilution procedure
[15] = system: Staphylococcus aureus Smith ATCC 13709; experiment: in vitro MIC, standard agar dilution procedure
[16] = system: Proteus mirabilis ATCC 4671; experiment: in vitro MIC, standard agar dilution procedure
[17] = system: Proteus vulgaris ATCC 9484; experiment: in vitro MIC, standard agar dilution procedure
[18] = system: Sarcina lutea ATCC 9341; experiment: in vitro MIC, standard agar dilution procedure
[19] = system: Pseudomonas aeruginosa 1A7; experiment: in vitro MIC, standard agar dilution procedure
[20] = system: Escherichia coli No. 29; experiment: in vitro MIC, standard agar dilution procedure
[21] = system: Mycobacterium smegmatis ATCC 607; experiment: in vitro MIC, standard agar dilution procedure
[22] = system: Bacillus subtilis No. 18 Stansly R-76; experiment: in vitro MIC, standard agar dilution procedure
[23] = system: Bacillus globigii; experiment: in vitro MIC, standard agar dilution procedure
[24] = read-out: Minimal Inhibitory Concentration
[25] = Salmonella enterica, read-out: Minimal Inhibitory Concentration

CC1OC(Oc2ccc(/C=C/C(=O)NCCCNCCCCN)cc2)C(NC(=N)N)C(O)C1NC(=O)NC1OCC(OC2OCC(O)C3NC(=O)N(C(N)=O)C23)C(O)C1NC(N)=O (single isomer, unassigned) [BM123γ1]
MIC [1, 24]: 0.05 µg/mL (≈ 0.0559 µM) | MIC [2, 25]: 0.1 µg/mL (≈ 0.112 µM) | MIC ([3]; Morganella morganii, ATCC8019, read-out: Minimal Inhibitory Concentration): 0.1 µg/mL (≈ 0.112 µM) | MIC [4, 24]: 0.1 µg/mL (≈ 0.112 µM) | MIC ([5]; ATCC10145, read-out: Minimal Inhibitory Concentration): 2.5 µg/mL (≈ 2.8 µM) | MIC ([6]; ATCC14154, read-out: Minimal Inhibitory Concentration): 0.25 µg/mL (≈ 0.28 µM) | MIC ([7]; Shigella, read-out: Minimal Inhibitory Concentration): 0.25 µg/mL (≈ 0.28 µM) | MIC ([8]; Enterococcus faecalis, read-out: Minimal Inhibitory Concentration): 2.5 µg/mL (≈ 2.8 µM) | MIC ([9]; Klebsiella aerogenes, read-out: Minimal Inhibitory Concentration): 0.1 µg/mL (≈ 0.112 µM) | MIC ([10]; NRRLB1397, read-out: Minimal Inhibitory Concentration): 0.25 µg/mL (≈ 0.28 µM) | MIC ([11]; ATCC9634, read-out: Minimal Inhibitory Concentration): 0.25 µg/mL (≈ 0.28 µM) | MIC ([12]; 4050B1223, read-out: Minimal Inhibitory Concentration): 0.25 µg/mL (≈ 0.28 µM) | MIC [13, 25]: 0.05 µg/mL (≈ 0.0559 µM) | MIC ([14]; U311, read-out: Minimal Inhibitory Concentration): 0.1 µg/mL (≈ 0.112 µM) | MIC ([15]; ATCC13709, read-out: Minimal Inhibitory Concentration): 0.1 µg/mL (≈ 0.112 µM) | MIC ([16]; ATCC4671, read-out: Minimal Inhibitory Concentration): 0.25 µg/mL (≈ 0.28 µM) | MIC ([17]; ATCC9484, read-out: Minimal Inhibitory Concentration): 0.1 µg/mL (≈ 0.112 µM) | MIC ([18]; Micrococcus luteus, ATCC9341, read-out: Minimal Inhibitory Concentration): 0.5 µg/mL (≈ 0.559 µM) | MIC [19, 24]: 5 µg/mL (≈ 5.59 µM) | MIC [20, 24]: 0.05 µg/mL (≈ 0.0559 µM) | MIC ([21]; Mycolicibacterium smegmatis, ATCC607, read-out: Minimal Inhibitory Concentration): 0.1 µg/mL (≈ 0.112 µM) | MIC [22, 24]: 0.25 µg/mL (≈ 0.28 µM)

CC1OC(Oc2ccc(/C=C/C(=O)NCCCNCCCCN)cc2)C(NC(=N)N)C(O)C1NC(=O)NC1OCC(OC2OCC(O)C(N)C2NC(N)=O)C(O)C1NC(N)=O (stereo not drawn) [BM123β1]
Minimal Inhibitory Concentration [1]: 0.25 µg/mL | Minimal Inhibitory Concentration [2]: 0.5 µg/mL | Minimal Inhibitory Concentration [3]: 0.5 µg/mL | Minimal Inhibitory Concentration [4]: 0.25 µg/mL | Minimal Inhibitory Concentration [5]: 25 µg/mL | Minimal Inhibitory Concentration [6]: 1 µg/mL | Minimal Inhibitory Concentration ([7]; Shigella shiga, agar dilution): 2.5 µg/mL | Minimal Inhibitory Concentration [8]: > 100 µg/mL | Minimal Inhibitory Concentration [9]: 0.5 µg/mL | Minimal Inhibitory Concentration [10]: 2.5 µg/mL | Minimal Inhibitory Concentration [11]: 2.5 µg/mL | Minimal Inhibitory Concentration [12]: 2.5 µg/mL | Minimal Inhibitory Concentration ([13]; Salmonella typhosa ATCC 6539, agar dilution): 0.25 µg/mL | Minimal Inhibitory Concentration [14]: 0.25 µg/mL | Minimal Inhibitory Concentration [15]: 0.5 µg/mL | Minimal Inhibitory Concentration [16]: 0.5 µg/mL | Minimal Inhibitory Concentration [17]: 0.25 µg/mL | Minimal Inhibitory Concentration [18]: 2.5 µg/mL | Minimal Inhibitory Concentration [19]: 100 µg/mL | Minimal Inhibitory Concentration [23]: 0.25 µg/mL | Minimal Inhibitory Concentration [20]: 0.25 µg/mL | Minimal Inhibitory Concentration [21]: 2.5 µg/mL | Minimal Inhibitory Concentration [22]: 2.5 µg/mL
